Measurements as given in paper PMC12730352 (Brain Sciences, 2025).

What was measured:
[1] = test system: NaV 1.7, NaV 1.8, and GABA; test: Nociception-related biomarker panel by ELISA in 3D EngNT (all markers together); assay type: cell-based, rat; conditions: GGF 200 ng/mL pretreatment, 24 h
Protocol: Quantification was obtained through a standard curve ranging from 6 to 400 pg/mL. NaV 1.7 was quantified on 3[…] lysates using the SCN9A/Nav1.7 ELISA Kit (LifeSpan BioSciences, Lynnwood, WA, USA). OD was correlated with the standards' concentration (0.312 to 20 ng/mL) using a standard curve. On 3[…] lysates, the Mouse Sodium Channel Protein Type 10 Subunit Alpha (SCN10A) ELISA Kit (MyBiosource, San Diego, CA, USA) quantified NaV 1.8 [64]. Comparing colour intensity (OD) to standard concentration produced a standard curve.

[2] = test system: 3D EngNT (RSC96/PC12 co-culture); test: ROS production (cytochrome C reduction) in 3D EngNT; assay type: cell-based, rat; conditions: GGF 200 ng/mL pretreatment, 24 h with intestinal metabolites
Protocol: In the EngNT in vitro model, superoxide anion release was assessed by measuring cytochrome C reduction. Superoxide dismutase and cytochrome C (from Merck Life Science, Rome, Italy) were incubated for 30 min with both treated and untreated cells. Absorbance at 550 nm was recorded using a spectrometer (Infinite 200 Pro MPlex, Tecan, Männedorf, Switzerland). The results, averaged over five tests performed in triplicate, are expressed as the mean ± standard deviation (%) of lower cytochrome C nanomoles per microgram of protein relative to the control (0 line).

[3] = test system: Caco-2 cells
[4] = test system: TNFα; test: TNFα ELISA in 3D EngNT supernatants; assay type: cell-based, rat; conditions: GGF 200 ng/mL pretreatment, 24 h
Description: TNF-α levels in 3D EngNT supernatants were quantified using the TNF-α ELISA Kit (Merck Life Science, Rome, Italy). The results were obtained using a calibration curve (range: 24.58–6000 pg/mL).

[5] = test system: MPZ; test: MPZ ELISA in 3D EngNT lysates; assay type: cell-based, rat; conditions: GGF 200 ng/mL pretreatment, 24 h
Protocol: (§1) The MPZ content in 3D EngNT cell lysates was determined using the Rat ELISA kit (MyBiosource, San Diego, CA, USA). A standard curve with a range of 0.06 to 18 ng/mL was used to express the concentration as a percentage of ng/mL.

[6] = test system: ERβ; test: ERβ ELISA in 3D EngNT lysates; assay type: cell-based, rat; conditions: GGF 200 ng/mL pretreatment, 24 h
Protocol: ERβ concentrations in 3[…] lysates were measured using the Rat ERβ ELISA Kit (Cloud-Clone, Houston, TX, USA).

[7] = test system: p75; test: p75 (NGFR) ELISA in 3D EngNT lysates; assay type: cell-based, rat; conditions: GGF 200 ng/mL pretreatment, 24 h
Protocol: 3[…] lysates were subjected to the Rat NGFR ELISA kit (MyBiosource, San Diego, CA, USA) in accordance with the product specifications. Quantification was obtained through a standard curve ranging from 0.312 to 20 ng/mL.

[8] = test system: 3D EngNT (RSC96/PC12 co-culture); test: MTT cell viability in 3D EngNT under demyelination (GGF 200 ng/mL); assay type: cell-based, rat; conditions: GGF 200 ng/mL pretreatment, 24 h with intestinal metabolites
Protocol: RSC96, a rat-derived Schwann cell line (purchased from ATCC), was cultured in Adv DMEM (Thermo Fisher Scientific, Rodano, MI, Italy) containing 1% penicillin-streptomycin, 2 mM L-glutamine, and 5% FBS [46]. The culture was maintained at 37 °C with 5% CO2 and 95% humidity in a 37 °C incubator. Experiments utilised RSC96 cells from passages 10 to 15, which were sub-cultured two or three times weekly.
The ATCC rat neural PC12 cell line was cultured in Advanced RPMI-1640 medium (Thermo Fisher Scientific, Rodano, MI, Italy). This medium contained 5% FBS, 5% horse serum (HS; Merck Life Science, Rome, Italy), and 2 mM glutamine. Cultures were maintained at 37 °C in a 5% CO2 environment with 95% humidity, ensuring they remained below confluency. Assays utilised cells between passages 3 and 13 [47]. PC12 cells are commonly used for in vitro neuroprotective chemical screening, being a suitable neuronal cell line. […]
A standard method described in the literature was employed to assess cell survival after each stimulation using the MTT-based In Vitro Toxicology Assay Kit (Merck Life Science, Rome, Italy). All solubilised materials, whether treated or untreated, were measured at 570 nm with a 690 nm correction using a spectrometer (Infinite 200 Pro MPlex, Tecan, Männedorf, Switzerland). […]

[9] = test system: p75, MPZ, NRG1, and Erβ; test: Neuroprotection biomarker panel by ELISA in 3D EngNT (all markers together); assay type: cell-based, rat; conditions: for all markers (p75, MPZ, NRG1, ERβ); GGF 200 ng/mL pretreatment
Protocol: as §1
3D EngNT cell lysates were subjected to the Rat NGFR ELISA kit (MyBiosource, San Diego, CA, USA) in accordance with the product specifications. Quantification was obtained through a standard curve ranging from 0.312 to 20 ng/mL.
ERβ concentrations in 3D EngNT lysates were measured using the Rat ERβ ELISA Kit (Cloud-Clone, Houston, TX, USA). The result was given as % ng/mL against a 0.312–20 ng/mL standard curve.

[10] = test system: NRG1; conditions: 3D EngNT, GGF 200 ng/mL pretreatment, 24 h
Protocol: Starting on day 14 of maturation, GGF at 200 ng/mL was added to the EngNT 3D model to damage peripheral neurons and remove substantial myelin [51]. 3D EngNT was then treated for 24 h with the intestinal metabolite of each previously collected sample.
All ELISA analyses were performed according to the manufacturers’ instructions using specific commercial kits for each biomarker. Absorbance was measured at 450 nm using a microplate reader (Infinite 200 ProMPlex, Tecan, Männedorf, Switzerland). For each assay, a standard calibration curve (range depending on the specific kit) was used to determine analyte concentrations.
NRG1 levels in 3D EngNT supernatants were measured using the FineTest NRG1 Rat ELISA Kit (Wuhan, China) [62].

Compound: CC(=O)N[C@@H](CS)C(=O)O [NAC, N-Acetylcysteine]
- nociception-related markers NaV 1.7, NaV 1.8, GABA (result in words) [1]: neuroprotective and hypothetically anti-nociceptive effects
- ROS production, antioxidant response (result in words) [2]: greatest effect compared to ALA and vitamin B6
- permeability compared to the control ([3]; at 4 h, fluorescent tracer, normalised to control): 51%
- permeability (result in words) ([3]; individual agents, 1–6 h): highest permeability of all agents
- TNFα production (result in words) [4]: effect slightly inferior to ALA
- MPZ levels (result in words) [5]: stronger, more noticeable impact than ALA and vitamin B6
- Erβ levels (result in words) [6]: comparable to ALA and better than vitamin B6

Compound: O=c1ccn([C@@H]2O[C@H](COP(=O)(O)O)[C@@H](O)[C@H]2O)c(=O)[nH]1 [UMP, Uridine monophosphate]
- p75 signal (result in words) [7]: comparable to ALA
- nociception-related markers NaV 1.7, NaV 1.8, GABA (result in words) [1]: neuroprotective and hypothetically anti-nociceptive effects
- cell viability (result in words) [8]: effects even more similar
- TNFα production (result in words) [4]: most pronounced reduction, superior to ALA

Compound: glial growth factor 2 [GGF]
- reduction of marker levels compared to the control condition [9]: about 10%

Compound: N[C@@H](CCC(=O)N[C@@H](CS)C(=O)NCC(=O)O)C(=O)O [GSH, Glutathione]
- p75 signal (result in words) [7]: comparable to ALA
- nociception-related markers NaV 1.7, NaV 1.8, GABA (result in words) [1]: neuroprotective and hypothetically anti-nociceptive effects
- cell viability (result in words) [8]: almost as strong as ALA and vitamin B6
- ROS production, antioxidant response (result in words) [2]: more pronounced reduction
- NRG1 levels (result in words) [10]: more biological effects than ALA and vitamin B6 alone
- MPZ levels (result in words) [5]: stronger, more noticeable impact than ALA and vitamin B6
- Erβ levels (result in words) [6]: comparable to ALA and better than vitamin B6
